According to article PMC4503256 (Biopharmaceutics & drug disposition, 2012):
Like-named read-outs stand apart in the source and are kept apart here. Marks after values point to notes of the source that are not given here.

Tests used:
[1] = In vitro partitioning experiments in two-phase dissolution apparatus; type: physicochemical
[2] = type: physicochemical; conditions: sodium acetate buffer 50 mM, pH 4.5, isotonic; unpublished data
[3] = cited from earlier work
[4] = measured value; cited from earlier work
[5] = cited from earlier work; for Log D: measured value
[6] = measured value; cited from earlier work; remark: listed apart in the source

CC(C)Cc1ccc(C(C)C(=O)O)cc1 (stereo not drawn) [Ibuprofen]
Best-fit PI for all conditions ([1]; Apparatus 1, experiments 3–6 (pH 1.5–6.3), 77 rpm, range of 2.2–4.8 × 10^−3): 3000 ×10⁻⁶ cm/s | PI × 10^4 (best fit) ([1]; Exp. 3, Fig 3(a), Apparatus 1, pH 1.5, 77 rpm, A/Va 0.42 cm^−1, MT/Va 16.7 μg/ml): 23.71 cm/s × 10^4 | PI × 10^4 (best fit) ([1]; Exp. 4, Fig 3(b), Apparatus 1, pH 4.3, 77 rpm, A/Va 0.42 cm^−1, MT/Va 16.7 μg/ml): 30.06 cm/s × 10^4 | PI × 10^4 (best fit) ([1]; Exp. 5, Fig 3(c), Apparatus 1, pH 4.4, 77 rpm, A/Va 0.42 cm^−1, MT/Va 16.7 μg/ml): 37.52 cm/s × 10^4 | PI × 10^4 (best fit) ([1]; Exp. 6, Fig 3(d), Apparatus 1, pH 6.3, 77 rpm, A/Va 0.42 cm^−1, MT/Va 16.7 μg/ml): 30.81 cm/s × 10^4 | PI × 10^4 (best fit) ([1]; Exp. 7, Fig 4(a), Apparatus 2, pH 5.0, 75 rpm, A/Va 0.30 cm^−1, MT/Va 25.0 μg/ml): 19.08 cm/s × 10^4 | PI × 10^4 (best fit) ([1]; Exp. 8, Fig 4(b), Apparatus 2, pH 6.8, 75 rpm, A/Va 0.30 cm^−1, MT/Va 50.0 μg/ml): 28.73 cm/s × 10^4 | PI × 10^4 (best fit) ([1]; Exp. 9, Fig 4(c), Apparatus 2, pH 6.8, 75 rpm, A/Va 0.30 cm^−1, MT/Va 25.0 μg/ml): 26.85 cm/s × 10^4 | Dissolution rates of particles, buffer versus buffer saturated with 1-octanol [2]: no difference | Absorbed in humans ([3]; in vivo): > 99%

Cc1nccn1CC1CCc2c(c3ccccc3n2C)C1=O (stereo not drawn) [Ondansetron]
Fa (fraction absorbed in vivo), actual ([3]; humans, oral solutions): 1

CN1C(C(=O)Nc2ccccn2)=C(O)c2ccccc2S1(=O)=O [Piroxicam]
pKa at 37 °C (basic) [4]: 2.3 (basic)^c | Log D ([5]; pH 1.2): pH 1.2: 0.92^f | Apparent partition coefficient ([5]; pH 7.5, 37 °C, ref Yazdanian et al. 27): 0.8 | Log D ([5]; pH 7.5): pH 7.5: 0.8^g | Intrinsic solubility at 37 °C [6]: 6.6 × 10^−5f M

CCCC(CCC)C(=O)O [Valproic acid]
Fa (fraction absorbed in vivo), actual ([3]; humans, oral solutions): 1 | ka × 10^4 (first-order absorption rate constant), decon. ([3]; humans, oral solutions, printed value = ka × 10^4): 11.5 s^−1
